One series concerns the target T1, JAK1-JH2 domain (Homo sapiens, UniProt P23458).
T1 construct: JAK1-JH2 domain or TYK2-JH2 domain enzyme in assay buffer
Kind of series: Binding activity test for JH2 domain of JAK1 (Tb-antibody/tracer FRET). To be noted: JH2 domain enzyme; 60 min at 25°C, then 4°C overnight; read-out: JAK1 JH2 Binding IC50. In outline: (§1)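 Competitive TR-FRET binding: compounds dispensed as an 11-point 3-fold dilution series, then Tb-labelled antibody and tracer added to the JH2 protein system. Incubated at 25°C, then overnight at 4°C; FRET signal read on Envision and IC50 (nM) derived.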

The test system of series [1] is Ba/F3-FL-TYK2-P760L cells. Briefly: Anti-proliferative assay in engineered Ba/F3 cells (Cell-Titer Glo, 72 h). Conditions: 72 h compound treatment, concentration that causes 50% growth inhibition, read-out: Baf3-FL-T2P760L. The format is cell-based. In outline:
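Ba/F3 cells carrying Tel-dimerization/JAK kinase fusion, IL-3-independent, in RPMI-1640 + 10% FBS; 9-point 3-fold dilutions from 20 µM (0.1% DMSO) added after 24 h, 72 h at 37 °C. Viability by Cell-Titer Glo ATP luminescence; % inhibition versus DMSO cells, blank-corrected, giving IC50.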

The target of another series is T2, TYK2-JH2 domain (Homo sapiens, UniProt P29597).
T2 construct: JAK1-JH2 domain or TYK2-JH2 domain enzyme in assay buffer
T2 sequence (P29597 589-875 limits assumed): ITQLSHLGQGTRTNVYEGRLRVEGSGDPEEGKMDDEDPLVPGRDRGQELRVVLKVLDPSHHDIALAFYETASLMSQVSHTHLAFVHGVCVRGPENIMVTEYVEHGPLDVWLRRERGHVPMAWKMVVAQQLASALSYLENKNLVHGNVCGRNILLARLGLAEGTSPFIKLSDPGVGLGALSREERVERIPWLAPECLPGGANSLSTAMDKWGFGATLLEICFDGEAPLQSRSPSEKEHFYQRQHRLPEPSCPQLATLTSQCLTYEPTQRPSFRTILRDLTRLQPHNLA
Briefly: Binding activity test for JH2 domain of TYK2 (Tb-antibody/tracer FRET). Conditions: for pIC50: JH2 domain enzyme, 60 min at 25°C, then 4°C overnight, read-out: TYK2 JH2 Binding IC50; for JAK1/TYK2 selectivity: ratio of JAK1 JH2 to TYK2 JH2 binding IC50. In outline: as §1

The nature of the next series: Kinetic solubility. The format is physicochemical. To be noted: 100 mM pH 7.4 phosphate buffer, 1% DMSO, room temperature, read-out: Kinetics Solubility_PBS7.4. The method, then:
Aliquots of 8 µL of reference and test compound stock solutions (10 mM/5 mM) are added into 792 µL of 100 mM pH 7.4 phosphate buffer. The final DMSO concentration is 1%. Sample tubes are shaken for 2 hours at 1000 rpm at room temperature. Samples are centrifuged at 12000 rpm for 10 min to precipitate un-dissolved particles. And transfer the supernatants to a new tube or plate. Add 5 µL of samples (no diluted, 10 times diluted, and 100 times diluted) and standard curve samples to 95 µL of ACN containing IS for LC-MS/MS analysis. Kinetic Solubilities Values of Exemplary Compounds

A further series deals with pSTAT1. Briefly: Phosphorylation inhibition of STAT in human whole blood (IFN-alpha stimulated, flow cytometry). Type of series: cell-based. Conditions: T-cell, 20 min, IFN-alpha stimulation 20 mins, CD3 T cells, read-out: pSTAT1 inhibition in hWB (IC50). Here is the method: The inhibitory potential of test articles in human whole blood assay was evaluated by the method of flow cytometry.
IFN-alpha will activate JAK1 and TYK2 kinase in T cells by binding to IFN receptors, and then lead to phosphorylation of STAT1 and STAT2. The phosphorylated STAT1 enter nuclear and promote transcription and expression of IFN-gamma. To evaluate the efficacy of TYK2i in T cells, freshly collected human whole blood will be stimulated with certain unit of human IFN-alpha (Universal Type I IFN(1MU), R&D, 11200-2) for 20 mins in incubator. After stimulation, fix cells with Phosflow™ Fix Buffer I (BD, 557870), and then collect fixed cells by centrifugation (500 g, 8min). Wash cells once with pre-cooled PBS, and then permeabilize cells with cold Perm Buffer III buffer (BD, 558050) for 45 mins on ice. Collect cells by centrifugation (600 g, 8min) and washed twice with cold PBS. Stain cells with anti-human CD3(FITC Mouse Anti-Human CD3, BD, 555332) and anti-pSTAT1_Y701(Alexa Fluor 647 Mouse Anti-Stat1 (pY701), BD, 612597) antibodies. Detect pSTAT1 by flow cytometry (CytoFlex S) and analyze data with FlowJo and GraphPad Prism 8 software. IC50 values of test articles were determined using 4- parameter logistic equation.

Series [2] is described as follows: Microsomal metabolic stability assay. The format is in vitro ADME. Conditions: human, liver microsomes, pH 7.4, 0.5 mg/mL microsomal protein, 1 µM test article, 2 mM NADPH; for microsomal CLint at 1 µM: read-out: Human LM Clint; for half-life at 1 µM: read-out: Human LM T1/2. The method, then: Microsomes were pre-incubated with test compound or control compounds for 5 min at 37°C in 100 mM potassium phosphate buffer, pH 7.4, 1.0 mM EDTA. The reaction was initiated by addition of 15 µL of the NADPH regenerating system to 30 µL of each incubation mixture per time point. The final incubation condition was composed of 0.5 mg/mL microsomal protein, 1 µM test article/positive control, 2 mM NADPH. The 0-minute samples were prepared by addition of a 30 µL aliquot of each incubation mixture to 135 µL quench reagent to precipitate proteins. And then a 15 µL aliquot of the NADPH regenerating system was added. At 5, 15, 30 and 45 minutes, the reaction will be stopped by the addition of cold acetonitrile solution containing internal standard. The samples taken at all time points were centrifuged at 5000×g for 15 minutes. 50 µL of supernatant are taken into 96-well assay plates pre-added with 50 µL ultrapure water, and then analyzed by LC/MS/MS.
Concentrations of test articles, control compounds in the samples were determined by using LC/MS/MS method. Plotting of the chromatograms and peak area integrations are carried out by Analyst (AB Sciex).
In the determination of the in vitro elimination constant (ke) of the control compounds, the analyte/internal standard peak area ratios will be converted to percentage remaining (%Remaining) with the following equation: %Remaining = (Peak area ratio of analyte to IS at each time point)/(Peak area ratio of analyte to IS at t = 0) × 100% [formula]
The CLint of microsomes was calculated using the formula: CLint (mic)=0.693/T1/2 /mg microsome protein per mL. The slope was measured by the natural logarithm of the percentage of the residual compound and time, T1/2 was calculated according to the following formula. T = (0.693)/(−slope) [formula]
In general terms: Liver microsomes are vesicles of endoplasmic reticulum, rich in cytochrome P450 enzymes.

pIC50: −log10 of the molar value. Converted amounts (≈) assume the structure as drawn. Where two headings read alike, the source gives them in different places.

T1 sequence (P23458 583-855 limits assumed): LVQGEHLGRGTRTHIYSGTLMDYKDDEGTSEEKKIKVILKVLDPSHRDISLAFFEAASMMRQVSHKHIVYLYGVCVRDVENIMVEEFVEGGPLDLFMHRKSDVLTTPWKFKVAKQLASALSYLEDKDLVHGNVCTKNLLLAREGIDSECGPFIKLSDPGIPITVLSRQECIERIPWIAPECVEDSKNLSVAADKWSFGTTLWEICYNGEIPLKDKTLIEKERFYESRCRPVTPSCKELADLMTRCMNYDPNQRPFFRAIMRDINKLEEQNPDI

Regarding `[2H]C([2H])([2H])NC(=O)c1cnc(NC(=O)C2CC2)cc1Nc1cnn2ccc(C(C)C(F)(F)F)c(OC)c12` (single isomer, unassigned) [Example 9A, (R*) -6-(cyclopropanecarboxamido)-4-((4-methoxy-5-(1,1,1-trifluoropropan-2-yl)pyrazolo[1,5-a]pyridin-3-yl)amino)-N-(methyl-d3)nicotinamide], the pIC50 was 7.41 at JAK1-JH2 domain, 5.67 in series [1] and 9.37 on TYK2-JH2 domain. In addition, the JAK1/TYK2 selectivity on TYK2-JH2 domain stood at 91.9. The solubility kinetic at 2 h in “Kinetic solubility” was determined as 35.80 µM (≈ 17.2 µg/mL).
Turning to `[2H]C([2H])([2H])NC(=O)c1cnc(NC(=O)C2CC2)cc1Nc1nn(CC)c2ccc(C(O)C(F)(F)F)c(OC)c12` (single isomer, unassigned) [Example 71A, (S*)-6-(cyclopropanecarboxamido)-4-((1-ethyl-4-methoxy-5-(2,2,2-trifluoro-1-hydroxyethyl)-1H-indazol-3-yl)amino)-N-(methyl-d3)nicotinamide], the pIC50 in the series with pSTAT1 is 7.26; on JAK1-JH2 domain, 8.14; in series [1], 9.39; on TYK2-JH2 domain, 9.85. The JAK1/TYK2 selectivity at TYK2-JH2 domain is listed as 51.84.
With `[2H]C([2H])([2H])NC(=O)c1cnc(NC(=O)C2CC2)nc1Nc1cnn2ccc(Cl)c(OC)c12` [Example 4, 4-((5-Chloro-4-methoxypyrazolo[1,5-a]pyridin-3-yl)amino)-2-(cyclopropanecarboxamido)-N-(methyl-d3)pyrimidine-5-carboxamide], the pIC50 with pSTAT1 was 6.51; at JAK1-JH2 domain, 7.81; in series [1] (Mus musculus, BaF3, 72 h), 7.41; at TYK2-JH2 domain, 9.79. At TYK2-JH2 domain, the JAK1/TYK2 selectivity was 93.5.
For the compound `[2H]C([2H])([2H])NC(=O)c1cnc(NC(=O)C2CC2)cc1Nc1cnn2ccc(CC#N)c(OC)c12` [Example 18, 4-((5-(Cyanomethyl)-4-methoxypyrazolo[1,5-a]pyridin-3-yl)amino)-6-(cyclopropanecarboxamido)-N-(methyl-d3)nicotinamide], the pIC50 in the series on pSTAT1 is 7.07; at JAK1-JH2 domain it was 8.79; in series [1] (Mus musculus, BaF3, 72 h), 7.04; on TYK2-JH2 domain, 9.89. Further, the JAK1/TYK2 selectivity at TYK2-JH2 domain is recorded as 12.5.
With `[2H]C([2H])([2H])NC(=O)c1cnc(NC(=O)C2CC2)cc1Nc1cnn2ccc(CO)c(OC)c12` [Example 22, 6-(Cyclopropanecarboxamido)-4-((5-(hydroxymethyl)-4-methoxypyrazolo[1,5-a]pyridin-3-yl)amino)-N-(methyl-d3)nicotinamide], the pIC50 is 7.09 in the series on pSTAT1; 8.12 on JAK1-JH2 domain; 6.89 in series [1] (Mus musculus, BaF3, 72 h); 9.73 on TYK2-JH2 domain. In addition, the microsomal CLint at 1 µM in series [2] stood at 4.5 µL/min/mg. For the same compound, the half-life at 1 µM in series [2] was determined as 308 min. The JAK1/TYK2 selectivity at TYK2-JH2 domain is listed as 40.6.
As for `[2H]C([2H])([2H])NC(=O)c1nnc(NC(=O)C2CC2)cc1Nc1nn(C)c2ccc([C@H](OC)C(F)(F)F)c(OC)c12` [Example 51B, (S)-6-(cyclopropanecarboxamido)-4-((4-methoxy-1-methyl-5-(2,2,2-trifluoro-1-methoxyethyl)-1H-indazol-3-yl)amino)-N-(methyl-d3)pyridazine-3-carboxamide], the pIC50 in the series with pSTAT1 was 7.12; at JAK1-JH2 domain, 8.90; in series [1] (Mus musculus, BaF3, 72 h) it was 9.40; on TYK2-JH2 domain, 9.77. The microsomal CLint at 1 µM in series [2] was 8.06 µL/min/mg. Also, in series [2], the half-life at 1 µM is 172 min. Also, on TYK2-JH2 domain, the JAK1/TYK2 selectivity came to 7.43.
In the case of `COC(=O)c1cnc(NC(=O)C2CC2)cc1Nc1nc2ccc(N3CC(OC)C3)cn2n1` [Example 107, Methyl 6-(cyclopropanecarbonylamino)-4-[[6-(3-methoxyazetidin-1-yl)-[1,2,4]triazolo[1,5-a]pyridin-2-yl]amino]pyridine-3-carboxylate], the pIC50 in the series on pSTAT1 is 6.40; in series [1] (Mus musculus, BaF3, 72 h) it was 7.56; at TYK2-JH2 domain, 9.60.
For `[2H]C([2H])([2H])CC(=O)c1cnc(NC(=O)C2CC2)cc1Nc1cnn2ccc([C@H](O)C(F)(F)F)c(OC)c12` [Example 141, (S)-N-(4-((4-methoxy-5-(2,2,2-trifluoro-1-hydroxyethyl)pyrazolo[1,5-a]pyridin-3-yl)amino)-5-(propanoyl-3,3,3-d3)pyridin-2-yl)cyclopropanecarboxamide], the pIC50 in the series with pSTAT1 is 6.75; in series [1] (Mus musculus, BaF3, 72 h), 7.95; on TYK2-JH2 domain, 10.12.
On to `CNC(=O)c1nnc(NC(=O)C2CC2)cc1Nc1nc2ccc(N3CC(OC)C3)cn2n1` [Example 188, 6-(Cyclopropanecarboxamido)-4-((6-(3-methoxyazetidin-1-yl)-[1,2,4]triazolo[1,5-a]pyridin-2-yl)amino)-N-methylpyridazine-3-carboxamide, reference compound], for which the solubility kinetic at 2 h in “Kinetic solubility” (phosphate buffer, pH 7.4, aqueous buffer, kinetic from dmso stock) came out at 1.01 µM (≈ 0.442 µg/mL).
As to `[2H]C([2H])([2H])NC(=O)c1cnc(NC(=O)[C@@H]2C[C@@H]2F)cc1Nc1nn(C)c2ccc([C@H](OC([2H])([2H])[2H])C(F)(F)F)c(OC)c12` [Example 192, 6-((1S,2S)-2-Fluorocyclopropane-1-carboxamido)-4-((4-methoxy-1-methyl-5-((S)-2,2,2-trifluoro-1-(methoxy-d3)ethyl)-1H-indazol-3-yl)amino)-N-(methyl-d3)nicotinamide], the pIC50 in the series with pSTAT1 is 7.61; at JAK1-JH2 domain it was 8.58; in series [1] (Mus musculus, BaF3, 72 h), 10.06; at TYK2-JH2 domain it was 10.12. Further, the JAK1/TYK2 selectivity at TYK2-JH2 domain is 35.08.
For `[2H]C([2H])([2H])NC(=O)c1nnc(NC(=O)C2CC2)cc1Nc1ncn2cccc2c1OC` [Example 198, 6-(Cyclopropanecarboxamido)-4-((4-methoxypyrrolo[1,2-c]pyrimidin-3-yl)amino)-N-(methyl-d3)pyridazine-3-carboxamide, reference compound] the same measures were 5.83, 7.98, 6.59, 8.83 and 7.0.
